Laboratory results from patent publication US8889674B2, “Piperidine and pyrrolidine derivatives having NPY Y5 receptor antagonism” (Shionogi & Co., Ltd., priority 2009, dated 2014).

Target: T1, mouse NPY Y5 receptor (Mus musculus, UniProt O70342)
T1 construct: expressed in transfected cells
T1 sequence (O70342 1-466): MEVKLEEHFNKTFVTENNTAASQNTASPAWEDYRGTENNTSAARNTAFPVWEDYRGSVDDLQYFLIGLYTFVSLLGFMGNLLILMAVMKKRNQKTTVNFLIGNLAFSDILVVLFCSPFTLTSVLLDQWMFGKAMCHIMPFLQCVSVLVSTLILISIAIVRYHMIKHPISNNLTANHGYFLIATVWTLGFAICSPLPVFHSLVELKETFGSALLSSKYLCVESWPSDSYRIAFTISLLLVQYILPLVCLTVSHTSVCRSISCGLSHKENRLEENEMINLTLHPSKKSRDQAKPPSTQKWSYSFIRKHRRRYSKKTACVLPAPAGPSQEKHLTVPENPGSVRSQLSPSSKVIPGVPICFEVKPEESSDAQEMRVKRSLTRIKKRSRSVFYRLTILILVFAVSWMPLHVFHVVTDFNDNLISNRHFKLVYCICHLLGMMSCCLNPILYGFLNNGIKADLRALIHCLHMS
Experiment: Affinity for NPY Y5 receptor: 125I peptide YY binding to membranes of CHO cells expressing mouse NPY Y5 receptor
Settings: mouse NPY Y5 receptor in CHO cell membranes, 125I peptide YY 60 pM, 25° C., 2 hours
Excerpt: cDNA sequence encoding mouse NPY Y5 receptor (Biochem. Biophys. Acta 1328: 83-89, 1997) was cloned in the expression vector (pME18S, Takebe et al. Mol. Cell. Biol. 8, 466-472). The obtained expression vector was transfected into CHO cells as a host according to the instruction manual using Lipofectamine reagent (Trademark, Gibco BRL Co., Ltd.). The cells that stably express NPY Y5 receptor were obtained.
The membrane samples prepared from the CHO cells expressing NPY Y5 receptor, the compound of the invention and 30,000 cpm ^125I peptide YY (60 pM of final concentration: Amersham) were incubated in the assay buffer (20 mM HEPES-Hanks buffer containing 0.1% bovine serum albumin, pH 7.4) at 25° C. for 2 hours. The membrane samples were then filtered from the mixture through a glassfilter (GF/C) presoaked with 1% polyethyleneimine. After washing with 50 mM Tris-HCl buffer (pH 7.4), radioactivity retained on the filters was determined using gamma counter. Non-specific binding was determined in the presence of 200 nM of peptide YY and calculated the 50% inhibitory concentration (IC50 value) of the test compound for specific peptide YY binding (Inui, A. et al. Endocrinology 131, 2090-2096 (1992)).

## Cc1[nH]c(C2CCN(C(=O)c3ccccc3C#N)CC2)nc1-c1ccccc1 [Ia-88]
  IC50: 0.35 nM

## N#Cc1ccccc1C(=O)N1CCC(c2nc3cc(-c4ccccc4F)ccc3[nH]2)CC1 [Ia-93]
  IC50: 0.19 nM

## N#Cc1ccccc1C(=O)N1CCC(c2cc(-c3ccc(Cl)c(Cl)c3)n[nH]2)CC1 [Ia-94]
  IC50: 0.3 nM

## O=C(Cn1cc(Cl)ccc1=O)N1CCC(c2cc3cc(OC(F)F)ccc3[nH]2)CC1 [Ia-28]
  IC50: 0.96 nM

## N#Cc1ccccc1C(=O)N1CCC(C(=O)Nc2cccc(Oc3ccccc3F)c2)CC1 [Ia-52]
  IC50: 0.28 nM

## CC(=O)N1CCC[C@@H]1C(=O)N1CCC(c2nc3ccc(-c4ccccc4F)cc3[nH]2)CC1 [Ia-5]
  IC50: 0.28 nM

## CC(=O)N1CCC[C@@H]1C(=O)N1CCC(C(=O)Nc2cccc(-c3ccccc3F)c2)CC1 [Ia-4]
  IC50: 0.47 nM

## N#Cc1ccccc1C(=O)N1CCC(c2nc(-c3cccc(C(F)(F)F)c3)c[nH]2)CC1 [Ia-87]
  IC50: 0.17 nM

## O=C(Nc1cccc(-c2ccccc2F)c1)C1CCN(C(=O)c2ccccc2C(F)(F)F)CC1 [Ia-104]
  IC50: 2 nM

## CC(C)n1cccc1C(=O)N1CCC(C(=O)Nc2cccc(-c3ccccc3F)c2)CC1 [Ia-116]
  IC50: 1.43 nM

## CC(C)n1ccc2cc(NC(=O)C3CCN(C(=O)c4ccccc4C#N)CC3)ccc21 [Ia-57]
  IC50: 0.23 nM

## O=C(Cn1cc(Cl)ccc1=O)N1CCC(c2cc3cc(-c4ccccn4)ccc3[nH]2)CC1 [Ia-29]
  IC50: 0.97 nM

## C[C@@H]1CC(F)(F)CN1C(=O)N1CCC(C(=O)Nc2cccc(-c3ccccc3F)c2)CC1 [Ia-18]
  IC50: 1.56 nM

## CC(C)n1ccc2cc(NC(=O)C3CCN(C(=O)c4ccccc4C(F)(F)F)CC3)ccc21 [Ia-108]
  IC50: 0.48 nM

## N#Cc1ccc(F)cc1C(=O)N1CCC(C(=O)Nc2cccc(-c3ncccn3)c2)CC1 [Ia-71]
  IC50: 0.37 nM

## N#Cc1ccccc1C(=O)N1CCC(C(=O)Nc2ccc(-c3ccccc3)cc2)CC1 [Ia-44]
  IC50: 0.26 nM

## N#Cc1ccccc1C(=O)N1CCC(C(=O)Nc2ccn(-c3ccccc3F)n2)CC1 [Ia-34]
  IC50: 0.59 nM

## N#Cc1ccccc1C(=O)N1CC[C@H](C(=O)Nc2cccc(-c3ccccc3F)c2)C1 [Ia-63]
  IC50: 0.33 nM

## N#Cc1ccccc1C(=O)N1CCC(C(=O)Nc2cccc(-c3nccs3)c2)CC1 [Ia-54]
  IC50: 0.39 nM

## O=C(Nc1ccn(-c2ccccc2F)n1)[C@H]1CCN(C(=O)c2ccccc2C(F)(F)F)C1 [Ia-106]
  IC50: 1.5 nM

## N#Cc1ccccc1C(=O)N1CCC(C(=O)Nc2cccc(Oc3ccccc3)c2)CC1 [Ia-47]
  IC50: 0.38 nM

## O=C(Nc1ccc(OC(F)F)cc1)C1CCN(C(=O)Cn2c(-c3ccccc3)noc2=O)CC1 [Ia-19]
  IC50: 0.29 nM

## N#Cc1ccccc1C(=O)N1CC[C@H](C(=O)Nc2ccn(-c3ccccc3F)n2)C1 [Ia-65]
  IC50: 0.25 nM

## N#Cc1ccccc1CN1CCC(C(=O)Nc2cccc(-c3ccccc3F)c2)CC1 [Ia-99]
  IC50: 0.64 nM

## N#Cc1ccccc1C(=O)N1CCC(C(=O)Nc2ccnc(-c3ccccc3F)c2)CC1 [Ia-40]
  IC50: 0.27 nM

## N#Cc1ccccc1C(=O)N1CCC(C(=O)Nc2cccc(-c3ccccn3)c2)CC1 [Ia-41]
  IC50: 0.31 nM

## N#Cc1ccccc1C(=O)N1CCC(c2nc(-c3ccc(Cl)c(Cl)c3)c[nH]2)CC1 [Ia-85]
  IC50: 0.12 nM

## N#Cc1ccc(F)cc1C(=O)N1CCC(C(=O)Nc2cccc(-c3ccccc3F)c2)CC1 [Ia-68]
  IC50: 0.2 nM

## CC(C)c1noc(=O)n1CC(=O)N1CCC(C(=O)Nc2cccc(-c3ccccc3F)c2)CC1 [Ia-22]
  IC50: 0.22 nM

## N#Cc1ccc(F)cc1C(=O)N1CCC(C(=O)Nc2cccc(-c3ccccn3)c2)CC1 [Ia-70]
  IC50: 0.18 nM

## CC(C)c1ccccc1C(=O)N1CCC(C(=O)Nc2ccc(OC(F)F)cc2)CC1 [Ia-62]
  IC50: 1.77 nM

## O=C(Nc1cccc(-c2ccccc2F)c1)C1CCN(C(=O)c2cc(Cl)ccn2)CC1 [Ia-113]
  IC50: 4.28 nM

## N#Cc1ccccc1C(=O)N1CCC(C(=O)Nc2cccc(-c3ccccc3F)c2)CC1 [Ia-35]
  IC50: 0.26 nM
